Results reported in patent US20210214375A1 (LUNDBECK LA JOLLA RESEARCH CENTER, INC., priority 2017, published 2021).

Tests used:
MAGL = molecular target: T1, MAGL (Mus musculus, UniProt O35678); experiment: Mouse brain proteomes from inhibitor treated mice (oral gavage, brain proteomes analyzed 4 h after administration); type: in vivo, mouse (C57Bl/6J); settings: brain proteome 4 h after administration, read-out: % Inh 5 mg/kg MGLL (Mouse)
T1 construct: from tissue; host or cells: brain of wild-type C57Bl/6J mice
T1 sequence (O35678 1-303): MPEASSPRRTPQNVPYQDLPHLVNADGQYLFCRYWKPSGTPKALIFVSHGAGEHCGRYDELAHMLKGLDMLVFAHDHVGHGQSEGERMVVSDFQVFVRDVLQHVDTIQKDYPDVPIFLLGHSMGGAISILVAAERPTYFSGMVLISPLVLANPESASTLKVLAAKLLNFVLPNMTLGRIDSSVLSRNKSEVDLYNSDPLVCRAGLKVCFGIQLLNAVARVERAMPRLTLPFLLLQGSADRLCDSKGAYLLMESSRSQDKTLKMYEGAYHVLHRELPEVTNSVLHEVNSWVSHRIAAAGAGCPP
Procedure, shortened: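 Wild-type C57Bl/6J mice dosed orally in polyethylene glycol vehicle; brains removed 4 h post-dose and brain proteomes prepared and analysed for MAGL and serine hydrolase activity by previously established methods.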

MGLL = molecular target: T2, MGLL (Mus musculus, UniProt O35678); experiment: In vitro competitive activity-based protein profiling, mouse brain proteome; type: biochemical
T2 construct: Brain; from tissue; host or cells: mouse brain proteome
T2 sequence (O35678 1-303): T1 sequence (O35678 1-303)
Experimental: [Worded in the source for another species; this species is reported under the same test.] (§1) Proteomes (human prefrontal cortex or cell membrane fractions) (50 μL, 1.0 mg/mL total protein concentration) were preincubated with varying concentrations of inhibitors at 37° C. After 30 min, FP—Rh or HT-01 (1.0 μL, 50 μM in DMSO) was added and the mixture was incubated for another 30 min at room temperature. Reactions were quenched with SDS loading buffer (15 μL-4×) and run on SDS-PAGE.

ABHD6 = molecular target: T3, ABHD6 (Mus musculus, UniProt Q8R2Y0); experiment: In vitro competitive activity-based protein profiling, mouse brain proteome, ABHD6; type: biochemical; settings: mouse
T3 construct: Brain; from tissue; host or cells: mouse brain proteome
T3 sequence (Q8R2Y0 1-336): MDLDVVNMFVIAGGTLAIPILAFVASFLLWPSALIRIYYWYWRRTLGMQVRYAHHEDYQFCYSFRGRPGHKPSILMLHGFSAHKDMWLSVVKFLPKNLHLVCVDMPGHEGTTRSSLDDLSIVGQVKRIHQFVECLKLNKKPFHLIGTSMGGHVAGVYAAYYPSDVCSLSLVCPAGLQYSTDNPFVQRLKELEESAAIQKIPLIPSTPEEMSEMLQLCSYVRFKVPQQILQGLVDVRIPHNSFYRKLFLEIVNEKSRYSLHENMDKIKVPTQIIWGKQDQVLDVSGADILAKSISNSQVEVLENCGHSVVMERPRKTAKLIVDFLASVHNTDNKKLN
Experimental: [Worded in the source for another target; this target is reported under the same test.] as §1

| SMILES | inhibition at 5 mg/kg (MAGL) [%] | IC50 (MGLL) [nM] | IC50 (ABHD6) [nM] |
| --- | --- | --- | --- |
| O=C(OC(C(F)(F)F)C(F)(F)F)N1CCC2(CC1)CN(Cc1ccc(Cl)cc1N1CCOCC1)C2 [Example 39, 1,1,1,3,3,3-Hexafluoropropan-2-yl 2-(4-chloro-2-morpholinobenzyl)-2,7-diazaspiro[3.5]nonane-7-carboxylate] | ≥ 75 | < 100 | 100 to 1000 |
| O=C(OC(C(F)(F)F)C(F)(F)F)N1CCC2(CC1)CN(Cc1c(N3CCCCC3)cccc1C(F)(F)F)C2 [Example 41, 1,1,1,3,3,3-Hexafluoropropan-2-yl 2-(2-(piperidin-1-yl)-6-(trifluoromethyl)benzyl)-2,7-diazaspiro[3.5]nonane-7-carboxylate] | ≥ 75 | < 100 | > 1000 |
| CS(=O)(=O)N1CCN(c2cccc(Cl)c2CN2CC3(CCN(C(=O)OC(C(F)(F)F)C(F)(F)F)CC3)C2)CC1 [Example 44, 1,1,1,3,3,3-Hexafluoropropan-2-yl 2-(2-chloro-6-(4-(methylsulfonyl)piperazin-1-yl)benzyl)-2,7-diazaspiro[3.5]nonane-7-carboxylate] | ≥ 75 | < 100 | < 100 |
| O=C(OC(C(F)(F)F)C(F)(F)F)N1CCC2(CC1)CN(Cc1c(Cl)cccc1N1CCCCC1)C2 [Example 45, 1,1,1,3,3,3-Hexafluoropropan-2-yl 2-(2-chloro-6-(piperidin-1-yl)benzyl)-2,7-diazaspiro[3.5]nonane-7-carboxylate] | ≥ 75 | < 100 | < 100 |
| O=C(OC(C(F)(F)F)C(F)(F)F)N1CCC2(CC1)CN(Cc1c(Cl)cccc1N1CCOCC1)C2 [Example 46, 1,1,1,3,3,3-Hexafluoropropan-2-yl 2-(2-chloro-6-morpholinobenzyl)-2,7-diazaspiro[3.5]nonane-7-carboxylate] | ≥ 75 | < 100 | < 100 |
| CC(=O)N1CCN(c2cccc(Cl)c2CN2CC3(CCN(C(=O)OC(C(F)(F)F)C(F)(F)F)CC3)C2)CC1 [Example 49, 1,1,1,3,3,3-Hexafluoropropan-2-yl 2-(2-(4-acetylpiperazin-1-yl)-6-chlorobenzyl)-2,7-diazaspiro[3.5]nonane-7-carboxylate] | ≥ 75 | < 100 | < 100 |
| CCN1CCN(c2cccc(Cl)c2CN2CC3(CCN(C(=O)OC(C(F)(F)F)C(F)(F)F)CC3)C2)CC1 [Example 50, 1,1,1,3,3,3-Hexafluoropropan-2-yl 2-(2-chloro-6-(4-ethylpiperazin-1-yl)benzyl)-2,7-diazaspiro[3.5]nonane-7-carboxylate] | ≤ 25 | < 100 | 100 to 1000 |
| O=C(OC(C(F)(F)F)C(F)(F)F)N1CCC2(CC1)CN(Cc1c(N3CCC(F)CC3)cccc1C(F)(F)F)C2 [Example 51, 1,1,1,3,3,3-Hexafluoropropan-2-yl 2-(2-(4-fluoropiperidin-1-yl)-6-(trifluoromethyl)benzyl)-2,7-diazaspiro[3.5]nonane-7-carboxylate] | ≥ 75 | < 100 | > 1000 |
| O=C(OC(C(F)(F)F)C(F)(F)F)N1CCC2(CC1)CN(Cc1c(N3CCC4(CCOCC4)C3)cccc1C(F)(F)F)C2 [Example 52, 1,1,1,3,3,3-Hexafluoropropan-2-yl 2-(2-(8-oxa-2-azaspiro[4.5]decan-2-yl)-6-(trifluoromethyl)benzyl)-2,7-diazaspiro[3.5]nonane-7-carboxylate] | ≥ 75 | < 100 | 100 to 1000 |
| CS(=O)(=O)N1CCN(c2cccc(C(F)(F)F)c2CN2CC3(CCN(C(=O)OC(C(F)(F)F)C(F)(F)F)CC3)C2)CC1 [Example 53, 1,1,1,3,3,3-Hexafluoropropan-2-yl 2-(2-(4-(methylsulfonyl)piperazin-1-yl)-6-(trifluoromethyl)benzyl)-2,7-diazaspiro[3.5]nonane-7-carboxylate] | ≥ 75 | < 100 | 100 to 1000 |
| CCN1CCN(c2cccc(C(F)(F)F)c2CN2CC3(CCN(C(=O)OC(C(F)(F)F)C(F)(F)F)CC3)C2)CC1 [Example 54, 1,1,1,3,3,3-Hexafluoropropan-2-yl 2-(2-(4-ethylpiperazin-1-yl)-6-(trifluoromethyl)benzyl)-2,7-diazaspiro[3.5]nonane-7-carboxylate] | ≤ 25 | < 100 | > 1000 |
| O=C(OC(C(F)(F)F)C(F)(F)F)N1CCC2(CC1)CN(Cc1c(Cl)cccc1N1CC3COCC3C1)C2 (stereo not drawn) [Example 57, 1,1,1,3,3,3-Hexafluoropropan-2-yl 2-(2-chloro-6-(tetrahydro-1H-furo[3,4-c]pyrrol-5(3H)-yl)benzyl)-2,7-diazaspiro[3.5]nonane-7-carboxylate] | ≥ 75 | < 100 | 100 to 1000 |
| O=C(OC(C(F)(F)F)C(F)(F)F)N1CCC2(CC1)CN(Cc1c(Cl)cccc1N1CCN(C3CC3)CC1)C2 [Example 58, 1,1,1,3,3,3-Hexafluoropropan-2-yl 2-(2-chloro-6-(4-cyclopropylpiperazin-1-yl)benzyl)-2,7-diazaspiro[3.5]nonane-7-carboxylate] | ≥ 75 | < 100 | 100 to 1000 |
| CC(=O)N1CCN(c2cccc(C(F)(F)F)c2CN2CC3(CCN(C(=O)OC(C(F)(F)F)C(F)(F)F)CC3)C2)CC1 [Example 59, 1,1,1,3,3,3-Hexafluoropropan-2-yl 2-(2-(4-acetylpiperazin-1-yl)-6-(trifluoromethyl)benzyl)-2,7-diazaspiro[3.5]nonane-7-carboxylate] | ≥ 75 | < 100 | 100 to 1000 |
| O=C(OC(C(F)(F)F)C(F)(F)F)N1CCC2(CC1)CN(Cc1c(N3CCN(C4CC4)CC3)cccc1C(F)(F)F)C2 [Example 60, 1,1,1,3,3,3-Hexafluoropropan-2-yl 2-(2-(4-cyclopropylpiperazin-1-yl)-6-(trifluoromethyl)benzyl)-2,7-diazaspiro[3.5]nonane-7-carboxylate] | ≥ 75 | < 100 | > 1000 |
| CS(=O)(=O)N1CCC2(CCN(c3cccc(Cl)c3CN3CC4(CCN(C(=O)OC(C(F)(F)F)C(F)(F)F)CC4)C3)CC2)C1 [Example 61, 1,1,1,3,3,3-Hexafluoropropan-2-yl 2-(2-chloro-6-(2-(methylsulfonyl)-2,8-diazaspiro[4.5]decan-8-yl)benzyl)-2,7-diazaspiro[3.5]nonane-7-carboxylate] | 25 to 75 | < 100 | 100 to 1000 |
| CS(=O)(=O)N1CCC2(CCN(c3cccc(C(F)(F)F)c3CN3CC4(CCN(C(=O)OC(C(F)(F)F)C(F)(F)F)CC4)C3)CC2)C1 [Example 62, 1,1,1,3,3,3-Hexafluoropropan-2-yl 2-(2-(2-(methylsulfonyl)-2,8-diazaspiro[4.5]decan-8-yl)-6-(trifluoromethyl)benzyl)-2,7-diazaspiro[3.5]nonane-7-carboxylate] | 25 to 75 | < 100 | > 1000 |
| CN(Cc1ccc(C(F)(F)F)cc1N1CCOCC1)C1(C)CCN(C(=O)OC(C(F)(F)F)C(F)(F)F)CC1 [Example 63, 1,1,1,3,3,3-Hexafluoropropan-2-yl 4-methyl-4-(methyl(2-morpholino-4-(trifluoromethyl)benzyl)amino) piperidine-1-carboxylate] | ≥ 75 | < 100 | > 1000 |
| O=C(OC(C(F)(F)F)C(F)(F)F)N1CCC2(CC1)CN(Cc1ccc(C(F)(F)F)cc1)C2 [Example 69, 1,1,1,3,3,3-Hexafluoropropan-2-yl 2-(4-(trifluoromethyl)benzyl)-2,7-diazaspiro[3.5]nonane-7-carboxylate] | ≥ 75 | < 100 | < 100 |
| CN(Cc1ccc(C(F)(F)F)cc1N1CCCC1)C1(C)CCN(C(=O)OC(C(F)(F)F)C(F)(F)F)CC1 [Example 72, 1,1,1,3,3,3-Hexafluoropropan-2-yl 4-methyl-4-(methyl(2-(pyrrolidin-1-yl)-4-(trifluoromethyl)benzyl)amino) piperidine-1-carboxylate] | ≥ 75 | < 100 | > 1000 |
| O=C(OC(C(F)(F)F)C(F)(F)F)N1CCC2(CC1)CN(Cc1ccc(C(F)(F)F)cc1N1CCCC1)C2 [Example 151, 1,1,1,3,3,3-Hexafluoropropan-2-yl 2-(2-(pyrrolidin-1-yl)-4-(trifluoromethyl)benzyl)-2,7-diazaspiro[3.5]nonane-7-carboxylate] | ≥ 75 | < 100 | 100 to 1000 |
